Like-named read-outs stand apart in the source and are kept apart here.
What was measured:
[1] = mice, 400 mg/kg, IP, plasma; cited from earlier work
[2] = IP, cited from earlier work; for behavior of the mice: 0.5 to 400 mg/kg
PC-3 tumors = settings: cited from earlier work; for tumor growth: IP, 28 days, 0.5 mg/kg; for mortality or body-weight loss: during the treatment, 0.5 mg/kg IP
HDAC6 [3] = target: T1, HDAC6 (Homo sapiens, UniProt Q9UBN7); settings: read-out: HDAC6 IC50, cited from earlier work
T1 sequence (Q9UBN7 1-1215): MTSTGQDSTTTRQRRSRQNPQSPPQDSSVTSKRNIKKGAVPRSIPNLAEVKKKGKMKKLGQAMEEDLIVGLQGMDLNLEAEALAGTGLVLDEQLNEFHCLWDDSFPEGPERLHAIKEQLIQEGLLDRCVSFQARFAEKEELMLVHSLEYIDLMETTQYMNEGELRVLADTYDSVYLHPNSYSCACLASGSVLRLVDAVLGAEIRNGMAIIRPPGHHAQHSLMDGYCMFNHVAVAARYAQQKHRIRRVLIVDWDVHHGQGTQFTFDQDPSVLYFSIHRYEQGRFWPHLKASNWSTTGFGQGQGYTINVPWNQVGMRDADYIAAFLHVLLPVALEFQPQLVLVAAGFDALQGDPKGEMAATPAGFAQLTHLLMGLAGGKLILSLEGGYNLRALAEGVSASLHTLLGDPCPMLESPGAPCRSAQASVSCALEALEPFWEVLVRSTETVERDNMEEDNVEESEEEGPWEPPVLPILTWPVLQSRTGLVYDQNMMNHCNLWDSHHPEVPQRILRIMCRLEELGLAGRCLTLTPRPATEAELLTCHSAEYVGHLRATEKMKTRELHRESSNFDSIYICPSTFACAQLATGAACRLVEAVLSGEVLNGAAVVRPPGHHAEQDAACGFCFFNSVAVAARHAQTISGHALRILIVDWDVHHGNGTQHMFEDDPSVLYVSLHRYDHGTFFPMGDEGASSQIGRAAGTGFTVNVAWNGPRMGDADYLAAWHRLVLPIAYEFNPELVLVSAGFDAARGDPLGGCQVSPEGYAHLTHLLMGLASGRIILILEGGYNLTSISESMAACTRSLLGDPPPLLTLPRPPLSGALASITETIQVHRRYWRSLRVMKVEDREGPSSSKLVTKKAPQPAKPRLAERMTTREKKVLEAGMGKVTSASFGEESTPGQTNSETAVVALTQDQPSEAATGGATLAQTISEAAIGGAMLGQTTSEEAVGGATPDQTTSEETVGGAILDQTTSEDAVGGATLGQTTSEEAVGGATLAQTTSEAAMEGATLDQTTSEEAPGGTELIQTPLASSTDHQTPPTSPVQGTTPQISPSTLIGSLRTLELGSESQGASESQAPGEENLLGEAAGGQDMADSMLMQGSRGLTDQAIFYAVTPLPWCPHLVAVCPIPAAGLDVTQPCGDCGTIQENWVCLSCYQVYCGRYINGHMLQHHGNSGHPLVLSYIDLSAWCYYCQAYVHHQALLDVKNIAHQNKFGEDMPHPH

[4] = system: nonmalignant cells (267-B1 and RWPE-1); settings: cited from earlier work
Caco-2 cells = settings: cited from earlier work; for permeability classification: moderately permeable = 2 × 10^−6 cm/s < Papp(A–B) < 20 × 10^−6 cm/s
[5] = system: prostate cancer cells (PC-3 and LNCap); settings: cited from earlier work
total HDACs = settings: read-out: Total HDAC (IC50); cited from earlier work
[6] = system: Ac-H4 in spleen, brain and liver; settings: 0.5 to 400 mg/kg, after 4 h treatment, dose-dependent; cited from earlier work
primary cortical neurons [7] = settings: cited from earlier work; for neuroprotection: at 10 μM
primary cortical neurons [8] = settings: 5 μM, 24 h; cited from earlier work
dendritic spine density = settings: 50 mg/kg, IP; cited from earlier work
[9] = system: N2a cells overexpressing hAPP; settings: 5 μM, 24 h; cited from earlier work
hAPP 3 × Tg mice = settings: 50 mg/kg, IP, four weeks, cited from earlier work
[10] = system: monomorphic malignant human glioma cells (A172, U373MG, and T98G); settings: cited from earlier work
HDAC2 = HDAC2 (Homo sapiens, UniProt Q92769); experiment: HDAC2 enzymatic inhibition; format: biochemical
Chain of HDAC2 (Q92769 whole entry, species assumed): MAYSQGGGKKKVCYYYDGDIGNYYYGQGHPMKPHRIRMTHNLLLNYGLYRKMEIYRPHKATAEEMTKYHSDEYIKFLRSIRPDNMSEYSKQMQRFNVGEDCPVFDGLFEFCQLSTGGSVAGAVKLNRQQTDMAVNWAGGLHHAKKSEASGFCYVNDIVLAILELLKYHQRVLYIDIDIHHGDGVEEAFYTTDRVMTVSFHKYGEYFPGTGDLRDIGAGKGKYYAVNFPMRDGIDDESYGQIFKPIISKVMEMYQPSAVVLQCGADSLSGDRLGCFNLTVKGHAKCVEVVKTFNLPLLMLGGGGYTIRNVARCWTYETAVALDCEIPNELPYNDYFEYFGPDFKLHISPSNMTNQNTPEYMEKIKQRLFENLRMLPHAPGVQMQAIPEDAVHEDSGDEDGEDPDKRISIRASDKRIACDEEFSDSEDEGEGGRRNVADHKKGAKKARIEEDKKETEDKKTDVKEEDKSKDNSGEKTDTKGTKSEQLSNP

HDAC1 = HDAC1 (Homo sapiens, UniProt Q13547); experiment: HDAC1 enzymatic inhibition; format: biochemical
Chain of HDAC1 (Q13547 whole entry, species assumed): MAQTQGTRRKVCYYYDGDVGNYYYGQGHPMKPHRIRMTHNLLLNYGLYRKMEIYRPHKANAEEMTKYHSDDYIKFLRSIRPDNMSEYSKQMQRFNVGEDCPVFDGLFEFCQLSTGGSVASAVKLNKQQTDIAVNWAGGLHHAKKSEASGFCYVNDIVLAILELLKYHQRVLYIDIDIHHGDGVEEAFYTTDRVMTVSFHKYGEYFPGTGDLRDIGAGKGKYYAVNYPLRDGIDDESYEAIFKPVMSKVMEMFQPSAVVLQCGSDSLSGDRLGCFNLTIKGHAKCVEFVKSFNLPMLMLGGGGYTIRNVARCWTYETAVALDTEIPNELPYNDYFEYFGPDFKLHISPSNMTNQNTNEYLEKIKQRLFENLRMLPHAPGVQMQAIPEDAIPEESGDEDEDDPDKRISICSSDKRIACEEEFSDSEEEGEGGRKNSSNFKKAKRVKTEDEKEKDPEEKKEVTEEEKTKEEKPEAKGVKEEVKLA

HDAC6 [11] = target: T1, HDAC6; experiment: HDAC6 enzymatic inhibition; format: biochemical
HDAC8 = target: T2, HDAC8 (Homo sapiens, UniProt Q9BY41); settings: read-out: HDAC8 IC50; cited from earlier work
T2 sequence (Q9BY41 1-377): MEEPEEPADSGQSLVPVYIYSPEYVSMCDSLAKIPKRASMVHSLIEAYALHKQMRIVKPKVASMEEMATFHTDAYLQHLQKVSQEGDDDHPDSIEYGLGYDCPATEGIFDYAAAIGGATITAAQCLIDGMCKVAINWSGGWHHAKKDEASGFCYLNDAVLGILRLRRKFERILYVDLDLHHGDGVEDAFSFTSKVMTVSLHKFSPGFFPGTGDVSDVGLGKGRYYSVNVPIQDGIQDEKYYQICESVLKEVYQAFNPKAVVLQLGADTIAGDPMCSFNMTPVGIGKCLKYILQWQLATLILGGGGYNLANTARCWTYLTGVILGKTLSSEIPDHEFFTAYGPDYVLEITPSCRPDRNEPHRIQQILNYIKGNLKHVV

In the case of `CN(C)c1ccc(C(=O)NCCCCCNC(=O)CS)cc1` [Compound 20], the CL [1] is listed as 4.87 ± 0.2 L/h, the “behavior of the mice” value [2] is listed as “remain normal” and the tumor growth (PC-3 tumors) is listed as “significant inhibition on the tumor growth”. For the same compound, the “mortality or body-weight loss” value (PC-3 tumors) was “no mortality or body-weight loss”, the IC50 (HDAC6 [3]; Table 1) was 110 nM and the “inhibitory effects on nonmalignant cells” value [4] was “no apparent inhibitory effects”. For the same compound, the permeability classification (Caco-2 cells) was “moderately permeable”, the anti-proliferative effects [5] was “low-micromolar levels of anti-proliferative effects” and the IC50 (total HDACs) was 200 nM. For the same compound, the “Ac-H4 levels in the spleen” value [6] was “significantly increased”.

For `Cc1onc(-c2ccccc2)c1COCCCCCNC(=O)[C@H](C)S` [Compound 41], the “prevention of glutathione depletion” value (primary cortical neurons [7]) is given as “ability to prevent glutathione depletion”.

For `O=C(CS)NCCCCCC(=O)Nc1cccc2cccnc12` [Compound 63], the CL [1] is listed as 4.05 ± 0.15 L/h, the “time to full recovery” value ([2]; 400 mg/kg) is listed as no more than 1 h and the “behavior of the mice” value [2] is listed as “incapacitated 15 min after treating”. For the same compound, the tumor growth (PC-3 tumors) was “significant inhibition on the tumor growth”, the “mortality or body-weight loss” value (PC-3 tumors) was “no mortality or body-weight loss” and the IC50 (HDAC6 [3]; Table 3) was 90 nM. The “increase of cell surface APP” value (primary cortical neurons [8]) was “two-fold”, the “inhibitory effects on nonmalignant cells” value [4] was “no apparent inhibitory effects” and the “transporters responsible for the efflux” value (Caco-2 cells) was “P-glycoprotein (P-gp) and multidrug resistance-associated protein 1 (MRP1)”. For the same compound, the permeability classification (Caco-2 cells) was “moderately permeable”, the dendritic spine density (dendritic spine density) was “promotes dendritic spine density” and the “increase of cell surface APP” value [9] was “two-fold”. For the same compound, the Aβ levels (hAPP 3 × Tg mice) was “decreased”, the “phosphorylated tau (Thr181) levels” value (hAPP 3 × Tg mice) was “decreased” and the “learning and memory deficits” value (hAPP 3 × Tg mice; aged mice (9-10-month-old)) was “alleviated the learning and memory deficits”. For the same compound, the anti-proliferative effects [5] was “low-micromolar levels of anti-proliferative effects”, the IC50 (total HDACs) was 40 nM and the “levels of Ac-H3” value ([10]; A172 and U373MG cells) was “without influence”. The “levels of Ac-Tub” value ([10]; A172 and U373MG cells) was “significantly enhanced”, the “cell migration and invasion” value ([10]; A172 cells) was “reduced cell migration and invasion” and the “phosphorylation of FAK/STAT3” value [10] was “suppress the phosphorylation of FAK/STAT3”. The “cytotoxicity in glioma cells” value ([10]; concentrations up to 50 μM) was “did not show cytotoxicity” and the “Ac-H4 levels in the spleen” value [6] was “significantly increased”.

With `O=C(CS)NCCCCCC(=O)Nc1ccccc1` [Compound 11] the IC50 (HDAC2) was greater than 30000 nM, the IC50 (HDAC1) was 3760 nM and the IC50 (HDAC6 [11]) was 340 nM. The “SI, HDAC1/6 selectivity index” value (HDAC6 [11]; HDAC1/HDAC6, text prints -folds) was 11.1.

In the case of `Cc1onc(-c2ccccc2)c1C=CCCCCCNC(=O)C(C)S` (stereo not drawn) [Compound 45], the neuroprotection (primary cortical neurons [7]) is listed as “neuroprotective effects”.

For `Cc1noc(-c2cccc(F)c2)c1C#CCCCCCNC(=O)C(C)S` (stereo not drawn) [Compound 50], the neuroprotection (primary cortical neurons [7]) is given as “neuroprotective effects”.

In the case of `Cc1onc(-c2ccccc2)c1C(=O)NCCCCCNC(=O)CS` [Compound 34], the neuroprotection (primary cortical neurons [7]) is listed as “full neuroprotection”.

With `O=C(CS)NCCCCCn1ccc2cc(Cl)c(Cl)cc21` [Compound 74] the IC50 (HDAC1) was greater than 30000 nM, the IC50 (HDAC6 [11]) was 2330 nM and the “SI, HDAC1/6 selectivity index” value (HDAC6 [11]) was greater than 12.8.

In the case of `O=C(NO)c1ccccc1` [phenylhydroxamate, reference compound], the IC50 (HDAC8) is listed as 1900 nM and the IC50 (HDAC6 [3]) is listed as 115 nM.

For `Cc1noc(-c2ccccc2)c1C#CCCCCCNC(=O)C(C)S` (stereo not drawn) [Compound 49], the neuroprotection (primary cortical neurons [7]) is given as “neuroprotective effects”.

In the case of `Cc1onc(-c2ccccc2)c1C(=O)NCCCCCNC(=O)[C@H](C)S` [Compound 37], the “prevention of glutathione depletion” value (primary cortical neurons [7]) is listed as “ability to prevent glutathione depletion”.

Source: paper PMC7744439 (European journal of medicinal chemistry, 2020)
